PMC8909834, “An Orally Bioavailable and Highly Efficacious Inhibitor of CDK9/FLT3 for the Treatment of Acute Myeloid Leukemia” (Cancers, 2022)
Where two headings read alike, the source gives them in different places.

Assay: Pharmacokinetics in mice
Assay type: in vivo, BALB/c hairy mice
Protocol: Pharmacokinetics. The pharmacokinetics of CDDD11-8 was determined in mice after single oral (PO) and intravenous (IV) doses. CDDD11-8 was administered at a dose of 10 or 100 mg/kg PO or 2 mg/kg IV to BALB/c hairy mice (n = 10 per route of administration; both male and female). The IV dose consisted of CDDD11-8 dissolved in 10/90 N-methyl-2-pyrrolidone (NMP)/acetate buffer (pH 4.5), while the PO doses of CDDD11-8 were dissolved in acetate buffer at pH 4.74. At nominal times, up to three blood samples were collected from individual mice at non-consecutive times from the right cheek, left cheek, and heart of an individual mouse. The concentrations in these samples were measured by validated LC-MS/MS methods (limit of quantification = 5 ng/mL). Pharmacokinetic parameters were estimated after fitting compartmental models to the concentration–time data (Phoenix, Certara, NJ, USA). Specifically, a one-compartmental kinetic model with first-order input was used after an oral dose, and a two-compartmental model was fitted to the IV data. Acceptability of models was evaluated from values for Akaike Information Criterion (AIC), Schwarz’s Bayesian Criterion (SIB), and % Coefficient of Variance (CV) for parameters, where lower values were indicative of a better fit. Other considerations were variances in the concentrations of quality control samples and visual inspection of model fit. Oral bioavailability (F) was calculated from values of AUC after PO and IV administration after correcting for the differences in doses.

For `Cc1cnc(N[C@H]2CC[C@H](N)CC2)nc1-c1cnc2ccc(-c3ccccc3)cn12` [CDDD11-8], the “oral bioavailability predicted from hepatic extraction” value was “about 43%”, the “plasma exposure after 100 mg/kg PO relative to 10 mg/kg” value was 19 times and the plasma exposure (PO 10 mg/kg) was 3.4 µM·h. The plasma exposure (PO 100 mg/kg) was 64 µM·h, the “extraction by the liver” value (blood clearance vs hepatic blood flow 5.4 L/h.kg) was roughly 57% and the clearance (both sexes, BALB/c hairy, mouse, IV 2 mg/kg, plasma, ± standard error of the estimate, read-out: CL (converted)) was 36.8 mL/min/kg. The concentration at 0.03 h (both sexes, BALB/c hairy, mouse, plasma, IV 2 mg/kg, 0.03 h, read-out: Plasma Conc.) was 2290 ng/mL, the concentration at 0.07 h (both sexes, BALB/c hairy, mouse, plasma, IV 2 mg/kg, 0.07 h, read-out: Plasma Conc.) was 2150 ng/mL and the concentration at 0.1 h (both sexes, BALB/c hairy, mouse, plasma, IV 2 mg/kg, 0.10 h, read-out: Plasma Conc.) was 1310 ng/mL. For the same molecule, the concentration at 0.17 h (both sexes, BALB/c hairy, mouse, plasma, IV 2 mg/kg, 0.17 h, read-out: Plasma Conc.) was 1070 ng/mL, the concentration at 0.2 h (both sexes, BALB/c hairy, mouse, plasma, IV 2 mg/kg, 0.20 h, read-out: Plasma Conc.) was 1020 ng/mL and the concentration at 0.3 h (both sexes, BALB/c hairy, mouse, plasma, IV 2 mg/kg, 0.30 h, read-out: Plasma Conc.) was 781 ng/mL. The concentration at 0.53 h (both sexes, BALB/c hairy, mouse, plasma, IV 2 mg/kg, 0.53 h, read-out: Plasma Conc.) was 367 ng/mL, the concentration at 0.68 h (both sexes, BALB/c hairy, mouse, plasma, IV 2 mg/kg, 0.68 h, read-out: Plasma Conc.) was 271 ng/mL and the concentration at 1.4 h (both sexes, BALB/c hairy, mouse, plasma, IV 2 mg/kg, 1.4 h, read-out: Plasma Conc.) was 132 ng/mL. It also gave a concentration at 2.1 h (both sexes, BALB/c hairy, mouse, plasma, IV 2 mg/kg, 2.1 h, read-out: Plasma Conc.) of 50 ng/mL, a concentration at 3.4 h (both sexes, BALB/c hairy, mouse, plasma, IV 2 mg/kg, 3.4 h, read-out: Plasma Conc.) of 20 ng/mL and a concentration at 4.1 h (both sexes, BALB/c hairy, mouse, plasma, IV 2 mg/kg, 4.1 h, read-out: Plasma Conc.) of 11 ng/mL. It also gave a concentration at 5.4 h (both sexes, BALB/c hairy, mouse, plasma, IV 2 mg/kg, read-out: Plasma Conc.) of 3 ng/mL, a concentration at 6 h (both sexes, BALB/c hairy, mouse, plasma, IV 2 mg/kg, 6 h, read-out: Plasma Conc.) of 3.2 ng/mL and a concentration at 7 h (both sexes, BALB/c hairy, mouse, plasma, IV 2 mg/kg, 7 h, read-out: Plasma Conc.) of 2.4 ng/mL. For the same molecule, the concentration at 7.7 h (both sexes, BALB/c hairy, mouse, plasma, IV 2 mg/kg, 7.7 h, read-out: Plasma Conc.) was 2.8 ng/mL, the concentration at 8 h (both sexes, BALB/c hairy, mouse, plasma, IV 2 mg/kg, 8 h, read-out: Plasma Conc.) was 2.8 ng/mL and the concentration at 8.8 h (both sexes, BALB/c hairy, mouse, plasma, IV 2 mg/kg, 8.8 h, read-out: Plasma Conc.) was 2 ng/mL. The concentration at 9.5 h (both sexes, BALB/c hairy, mouse, plasma, IV 2 mg/kg, 9.5 h, read-out: Plasma Conc.) was 1.7 ng/mL, the AUC (both sexes, BALB/c hairy, mouse, plasma, IV 2 mg/kg, ± standard error of the estimate) was 906 ± 90 ng·h/mL and the Vd (both sexes, BALB/c hairy, mouse, plasma, IV 2 mg/kg, ± standard error of the estimate, read-out: Vss) was 1.71 ± 0.246 L/kg. For the same molecule, the half-life (both sexes, BALB/c hairy, mouse, plasma, IV 2 mg/kg, ± standard error of the estimate, read-out: t½ (converted)) was 1.8 ± 0.3 h, the concentration at 0.13 h (both sexes, BALB/c hairy, mouse, plasma, PO 10 mg/kg, 0.13 h, read-out: Plasma Conc.) was 140 ng/mL and the concentration at 0.28 h (both sexes, BALB/c hairy, mouse, plasma, PO 10 mg/kg, 0.28 h, read-out: Plasma Conc.) was 300 ng/mL. For the same molecule, the concentration at 0.4 h (both sexes, BALB/c hairy, mouse, plasma, PO 10 mg/kg, 0.40 h, read-out: Plasma Conc.) was 139 ng/mL, the concentration at 0.65 h (both sexes, BALB/c hairy, mouse, plasma, PO 10 mg/kg, 0.65 h, read-out: Plasma Conc.) was 389 ng/mL and the concentration at 1.2 h (both sexes, BALB/c hairy, mouse, plasma, PO 10 mg/kg, 1.2 h, read-out: Plasma Conc.) was 740 ng/mL. For the same molecule, the concentration at 1.9 h (both sexes, BALB/c hairy, mouse, plasma, PO 10 mg/kg, 1.9 h, read-out: Plasma Conc.) was 356 ng/mL, the concentration at 2.6 h (both sexes, BALB/c hairy, mouse, plasma, PO 10 mg/kg, 2.6 h, read-out: Plasma Conc.) was 450 ng/mL and the concentration at 3.3 h (both sexes, BALB/c hairy, mouse, plasma, PO 10 mg/kg, 3.3 h, read-out: Plasma Conc.) was 95 ng/mL. It also gave a concentration at 4 h (both sexes, BALB/c hairy, mouse, plasma, PO 10 mg/kg, 4.0 h, read-out: Plasma Conc.) of 169 ng/mL, a concentration at 4.7 h (both sexes, BALB/c hairy, mouse, plasma, PO 10 mg/kg, 4.7 h, read-out: Plasma Conc.) of 34 ng/mL and a concentration at 5.4 h (both sexes, BALB/c hairy, mouse, plasma, PO 10 mg/kg, read-out: Plasma Conc.) of 17 ng/mL. The concentration at 6.2 h (both sexes, BALB/c hairy, mouse, plasma, PO 10 mg/kg, 6.2 h, read-out: Plasma Conc.) was 20 ng/mL, the concentration at 6.8 h (both sexes, BALB/c hairy, mouse, plasma, PO 10 mg/kg, 6.8 h, read-out: Plasma Conc.) was 3.4 ng/mL and the concentration at 7.8 h (both sexes, BALB/c hairy, mouse, plasma, PO 10 mg/kg, 7.8 h, read-out: Plasma Conc.) was 1.6 ng/mL. The concentration at 8.5 h (both sexes, BALB/c hairy, mouse, plasma, PO 10 mg/kg, 8.5 h, read-out: Plasma Conc.) was 1.8 ng/mL.
